Experimental findings from patent US11225477B2, “Inhibitors of influenza virus replication, application methods and uses thereof” (SUNSHINE LAKE PHARMA CO., LTD., priority 2015, dated 2022) are described below.

Structures are written as SMILES.

One series has as its system virus H1N1 A/Weiss/43. Description: microbe, parasite or virus in culture. Type of series: cell-based. The note with it: Influenza A virus, 120 h; MDCK cells, H1N1 A/Weiss/43, Scheme 2: 8 concentrations 50 nM to 0.023 nM, 5 days, CCK-8.
The conditions of series [1]: SD, rat, in vivo, po, 5 mg/kg.
Description: (§1) The compounds disclosed herein were administered in form of a saline solution containing 5% DMSO, 5% Kolliphor HS 15 and 90% Saline. […] Plasma samples were collected and stored at −20° C. or −70° C. until LC/MS/MS analysis.
Another series can be described thus: in vivo. To be noted: SD, rat.

Description for in vivo: as §1

Turning to `O=C(O)[C@H]1C2CCC(CC2)C1Nc1cc(-c2ccco2)nc(-c2c[nH]c3ncc(F)cc23)n1` (stereo in doubt) [Example 9a, (2S,3S)-3-((2-(5-fluoro-1H-pyrrolo[2,3-b]pyridin-3-yl)-6-(furan-2-yl)pyrimidin-4-yl)amino)bicyclo[2.2.2]octane-2-carboxylic Acid], the 50% effective concentration (EC50) in the series with virus H1N1 A/Weiss/43 stood at 0.039 nM.

`O=C(O)[C@H]1C2CCC(CC2)C1Nc1cc(-c2ccc([N+](=O)[O-])o2)nc(-c2c[nH]c3ncc(F)cc23)n1` (stereo in doubt) [Example 24a, (2S,3S)-3-((2-(5-fluoro-1H-pyrrolo[2,3-b]pyridin-3-yl)-6-(5-nitrofuran-2-yl)pyrimidin-4-yl)amino)bicyclo[2.2.2]octane-2-carboxylic Acid] came in with an EC50 with virus H1N1 A/Weiss/43 of 0.744 nM.

Compound `O=C(O)C1C2CCC(CC2)C1Nc1nc(-c2c[nH]c3ncc(F)cc23)nc(-c2ccco2)c1F` (racemic) [Example 49, (+/−)-trans-3-((5-fluoro-2-(5-fluoro-1H-pyrrolo[2,3-b]pyridin-3-yl)-6-(furan-2-yl)pyrimidin-4-yl)amino)bicyclo[2.2.2]octane-2-carboxylic Acid] gave an EC50 in the series with virus H1N1 A/Weiss/43 of 0.068 nM.

For `CC(C)n1ccc2c(N[C@H]3C4CCC(CC4)[C@@H]3C(=O)O)nc(-c3c[nH]c4ncc(F)cc34)nc21` [Example 78, (2S,3S)-3-((2-(5-fluoro-1H-pyrrolo[2,3-b]pyridin-3-yl)-7-isopropyl-7H-pyrrolo [2,3-d]pyrimidin-4-yl)amino)bicyclo[2.2.2]octane-2-carboxylic Acid], in the series on virus H1N1 A/Weiss/43, the midpoint of the response, the EC50, lay at 0.236 nM.

In the series with virus H1N1 A/Weiss/43, `O=C(O)C1C2CCC(CC2)C1Nc1nc(-c2c[nH]c3ncc(F)cc23)nc(-c2cc3ccccc3s2)c1F` (racemic) [Example 55, (+/−)-trans-3-((6-(benzo[b]thiophen-2-yl)-5-fluoro-2-(5-fluoro-1H-pyrrolo [2,3-b]pyridin-3-yl)pyrimidin-4-yl)amino)bicyclo[2.2.2]octane-2-carboxylic Acid] returned an EC50 of 0.874 nM.

`O=C(O)C1C2CCC(CC2)C1Nc1nc(-c2c[nH]c3ncc(F)cc23)nc(-c2cc3ccccc3o2)c1F` (racemic) [Example 54, (+/−)-trans-3-((6-(benzofuran-2-yl)-5-fluoro-2-(5-fluoro-1H-pyrrolo[2,3-b]pyridin-3-yl)pyrimidin-4-yl)amino)bicyclo[2.2.2]octane-2-carboxylic Acid] displayed an EC50 with virus H1N1 A/Weiss/43 of 0.261 nM.

Take `Cc1nc2[nH]cc(-c3nc(NC4C5CCC(CC5)C4C(=O)O)cc(-c4ccccc4)n3)c2cc1F` (racemic) [Example 80, (+/−)-trans-3-((2-(5-fluoro-6-methyl-1H-pyrrolo[2,3-b]pyridin-3-yl)-6-phenylpyrimidin-4-yl)amino)bicyclo[2.2.2]octane-2-carboxylic Acid]: the F in series [1] came to 62.5%. In the series “in vivo” (iv, 1 mg/kg), the AUC(0-inf) is 3380 ng·h/mL, the AUC(0-t) amounted to 3320 ng·h/mL, the peak concentration (Cmax) came out at 5630 ng/mL and the Tmax is 0.083 h. In “in vivo” (iv, 1 mg/kg), this compound had a Vd of 1.5 L/kg, a clearance of 4.94 mL/min/kg and a half-life of 1.53 h. In the series “in vivo” (po, 5 mg/kg), the AUC(0-inf) is 10600 ng·h/mL, the AUC(0-t) was 10100 ng·h/mL, the Cmax was 3130 ng/mL and the time to peak (Tmax) came out at 0.833 h. Also, the half-life in “in vivo” (po, 5 mg/kg) was 1.48 h.

On to `O=C(O)[C@H]1C2CCC(CC2)C1Nc1cc(-c2ccccc2)nc(-c2c[nH]c3ncc(F)cc23)n1` (stereo in doubt) [Example 4a, (2S,3S)-3-((2-(5-fluoro-1H-pyrrolo[2,3-b]pyridin-3-yl)-6-phenylpyrimidin-4-yl)amino)bicyclo[2.2.2]octane-2-carboxylic Acid], for which the EC50 with virus H1N1 A/Weiss/43 is 0.17 nM.

Regarding `O=C(O)C1C2CCC(CC2)C1Nc1cc(-c2cc3ccccc3o2)nc(-c2c[nH]c3ncc(F)cc23)n1` (racemic) [Example 16, (+/−)-trans-3-((6-(benzofuran-2-yl)-2-(5-fluoro-1H-pyrrolo[2,3-b]pyridin-3-yl)pyrimidin-4-yl)amino)bicyclo[2.2.2]octane-2-carboxylic Acid], the midpoint of the response with virus H1N1 A/Weiss/43, the EC50, lay at 0.54 nM. This EC50 lies about 3.2-fold higher than the previous one.

Compound `O=C(O)C1C2CCC(CC2)C1Nc1cc(-c2cccs2)nc(-c2c[nH]c3ncc(F)cc23)n1` (racemic) [Example 23, (+/−)-trans-3-((2-(5-fluoro-1H-pyrrolo[2,3-b]pyridin-3-yl)-6-(thiophen-2-yl)pyrimidin-4-yl)amino)bicyclo[2.2.2]octane-2-carboxylic Acid] yielded an EC50 in the series on virus H1N1 A/Weiss/43 of 0.104 nM.

In series [1], `O=C(O)C1C2CCC(CC2)C1Nc1cc(C2CC2)nc(-c2c[nH]c3ncc(F)cc23)n1` (racemic) [Example 68, (+/−)-trans-3-((6-cyclopropyl-2-(5-fluoro-1H-pyrrolo[2,3-b]pyridin-3-yl)pyrimidin-4-yl)amino)bicyclo[2.2.2]octane-2-carboxylic Acid] registered an F of 60.1%. Further, in “in vivo” (iv, 1 mg/kg), the AUC(0-inf) was 2880 ng·h/mL, the AUC(0-t) was found to be 2760 ng·h/mL, the concentration peaked (Cmax) at 3750 ng/mL and the Tmax was found to be 0.083 h. For the same compound, in “in vivo” (iv, 1 mg/kg), the volume of distribution (Vd) was 0.551 L/kg, the clearance stood at 5.86 mL/min/kg and the half-life is 2.01 h. Besides, in the series “in vivo” (po, 5 mg/kg), the AUC(0-inf) amounted to 8330 ng·h/mL, the AUC(0-t) amounted to 8310 ng·h/mL, the highest level (Cmax) was 2960 ng/mL and the Tmax is 0.417 h. The compound further had a half-life in “in vivo” (po, 5 mg/kg) of 3.24 h.

In series [1], `O=C(O)[C@H]1C2CCC(CC2)[C@@H]1Nc1cc(-c2ccco2)nc(-c2c[nH]c3nc(F)ccc23)n1` [Example 73, (2S,3S)-3-((2-(6-fluoro-1H-pyrrolo[2,3-b]pyridin-3-yl)-6-(furan-2-yl)pyrimidin-4-yl)amino)bicyclo[2.2.2]octane-2-carboxylic Acid] displayed an F of 42.6%. Moreover, in the series “in vivo” (iv, 1 mg/kg), the AUC(0-inf) was found to be 24800 ng·h/mL, the AUC(0-t) worked out at 24200 ng·h/mL, the Cmax was 14800 ng/mL and the Tmax is 0.083 h. Further, in the series “in vivo” (iv, 1 mg/kg), the Vd amounted to 0.212 L/kg, the clearance was determined as 0.681 mL/min/kg and the half-life is 1.41 h. Besides, in the series “in vivo” (po, 5 mg/kg), the AUC(0-inf) came out at 52800 ng·h/mL, the AUC(0-t) stood at 50600 ng·h/mL, the Cmax is 9300 ng/mL and the Tmax stood at 1.5 h. Besides, the half-life in the series “in vivo” (po, 5 mg/kg) was 5.58 h.

As for `O=C(O)C1C2CCC(CC2)C1Nc1nc(-c2c[nH]c3ncc(F)cc23)ncc1F` (racemic) [Control VX-787 (racemization), (+/−)-trans-3-((5-fluoro-2-(5-fluoro-1H-pyrrolo[2,3-b]pyridin-3-yl)pyrimidin-4-yl)amino)bicyclo[2.2.2]octane-2-carboxylic acid, reference compound], the F in series [1] amounted to 58.4%.

`O=C(O)C1C2CCC(CC2)C1Nc1cc(-c2cccc3c2oc2ccccc23)nc(-c2c[nH]c3ncc(F)cc23)n1` (racemic) [Example 18, (+/−)-trans-3-((6-(dibenzo[b,d]furan-4-yl)-2-(5-fluoro-1H-pyrrolo[2,3-b]pyridin-3-yl)pyrimidin-4-yl)amino)bicyclo[2.2.2]octane-2-carboxylic Acid] gave a F in series [1] of 43.1%. Also, in the series “in vivo” (iv, 1 mg/kg), the AUC(0-inf) came out at 3190 ng·h/mL, the AUC(0-t) worked out at 3130 ng·h/mL, the Cmax is 4470 ng/mL and the Tmax amounted to 0.083 h. In addition, in the series “in vivo” (iv, 1 mg/kg), the Vd is 0.598 L/kg, the clearance stood at 5.3 mL/min/kg and the half-life is 4.37 h. For the same compound, in “in vivo” (po, 5 mg/kg), the AUC(0-inf) worked out at 6880 ng·h/mL, the AUC(0-t) stood at 6840 ng·h/mL, the Cmax was 1690 ng/mL and the Tmax worked out at 2 h. Besides, the half-life in the series “in vivo” (po, 5 mg/kg) is 3.71 h.

Turning to `CC(C)(C)[C@@H](CC(=O)O)Nc1nc(-c2c[nH]c3ncc(F)cc23)nc(-c2ccco2)c1F` [Example 61, (R)-3-((5-fluoro-2-(5-fluoro-1H-pyrrolo[2,3-b]pyridin-3-yl)-6-(furan-2-yl)pyrimidin-4-yl)amino)-4,4-dimethylpentanoic Acid], the F in series [1] is 53.1%. Further, in “in vivo” (iv, 1 mg/kg), the AUC(0-inf) turned out to be 4050 ng·h/mL, the exposure AUC(0-t) was determined as 4030 ng·h/mL, the peak level (Cmax) was 8540 ng/mL and the Tmax came to 0.083 h. In “in vivo” (iv, 1 mg/kg), this compound gave a Vd of 0.585 L/kg, a clearance of 4.17 mL/min/kg and a half-life of 0.542 h. Moreover, in the series “in vivo” (po, 5 mg/kg), the AUC(0-inf) turned out to be 10700 ng·h/mL, the AUC(0-t) was 10400 ng·h/mL, the highest level (Cmax) was 2710 ng/mL and the Tmax was 1.5 h. Also, the half-life in “in vivo” (po, 5 mg/kg) is 5.95 h.

Consider `O=C(O)C1C2CCC(CC2)C1Nc1nc(-c2c[nH]c3ncc(F)cc23)nc(C#Cc2ccccc2)c1F` (racemic) [Example 63, (+/−)-trans-3-((5-fluoro-2-(5-fluoro-1H-pyrrolo[2,3-b]pyridin-3-yl)-6-phenylethynyl)pyrimidin-4-yl)amino)bicyclo[2.2.2]octane-2-carboxylic Acid], for which the F in series [1] was determined as 65%. In addition, in “in vivo” (iv, 1 mg/kg), the AUC(0-inf) was determined as 4750 ng·h/mL, the AUC(0-t) was determined as 4710 ng·h/mL, the highest level (Cmax) was 4990 ng/mL and the Tmax came to 0.083 h. In the series “in vivo” (iv, 1 mg/kg), this compound had a Vd of 0.416 L/kg, a clearance of 3.55 mL/min/kg and a half-life of 3.85 h. In addition, in “in vivo” (po, 5 mg/kg), the area under the curve AUC(0-inf) is 15400 ng·h/mL, the AUC(0-t) worked out at 15300 ng·h/mL, the peak level (Cmax) was 3280 ng/mL and the Tmax was 2 h. In the series “in vivo” (po, 5 mg/kg), this compound gave a half-life of 3.59 h.

For `CC(C)n1ccc2c(NC3C4CCC(CC4)C3C(=O)O)nc(-c3c[nH]c4ncc(F)cc34)nc21` (racemic) [Example 25, (+/−)-trans-3-((2-(5-fluoro-1H-pyrrolo[2,3-b]pyridin-3-yl)-7-isopropyl-7H-pyrrolo[2,3-d]pyrimidin-4-yl)amino)bicyclo[2.2.2]octane-2-carboxylic Acid], in the series on virus H1N1 A/Weiss/43, a half-maximal effect (EC50) was put at 0.26 nM.
